Reference: patent US20250002470A1, “NITROGEN-CONTAINING COMPOUND, PREPARATION METHOD THEREFOR AND APPLICATION THEREOF” (ZHEJIANG AIXPLORER BIOTECH CO., LTD., priority 2021, published 2025)
Marks after values point to notes of the source that are not given here.

How the values were obtained:
NLRP3 = biological target: T1, NLRP3 (Homo sapiens, UniProt Q96P20); assay: IL-1β (interleukin-1β) secretion in IFN-γ-differentiated, LPS/ATP-stimulated THP-1 cells (half inhibition rate of NLRP3); format: cell-based; details: IFN-γ 25 ng/mL, LPS 50 ng/mL, ATP 5 mM
T1 construct: endogenous in cells; host or cells: THP-1 cells (IFN-γ differentiated, LPS primed, ATP stimulated)
T1 sequence (Q96P20 whole entry): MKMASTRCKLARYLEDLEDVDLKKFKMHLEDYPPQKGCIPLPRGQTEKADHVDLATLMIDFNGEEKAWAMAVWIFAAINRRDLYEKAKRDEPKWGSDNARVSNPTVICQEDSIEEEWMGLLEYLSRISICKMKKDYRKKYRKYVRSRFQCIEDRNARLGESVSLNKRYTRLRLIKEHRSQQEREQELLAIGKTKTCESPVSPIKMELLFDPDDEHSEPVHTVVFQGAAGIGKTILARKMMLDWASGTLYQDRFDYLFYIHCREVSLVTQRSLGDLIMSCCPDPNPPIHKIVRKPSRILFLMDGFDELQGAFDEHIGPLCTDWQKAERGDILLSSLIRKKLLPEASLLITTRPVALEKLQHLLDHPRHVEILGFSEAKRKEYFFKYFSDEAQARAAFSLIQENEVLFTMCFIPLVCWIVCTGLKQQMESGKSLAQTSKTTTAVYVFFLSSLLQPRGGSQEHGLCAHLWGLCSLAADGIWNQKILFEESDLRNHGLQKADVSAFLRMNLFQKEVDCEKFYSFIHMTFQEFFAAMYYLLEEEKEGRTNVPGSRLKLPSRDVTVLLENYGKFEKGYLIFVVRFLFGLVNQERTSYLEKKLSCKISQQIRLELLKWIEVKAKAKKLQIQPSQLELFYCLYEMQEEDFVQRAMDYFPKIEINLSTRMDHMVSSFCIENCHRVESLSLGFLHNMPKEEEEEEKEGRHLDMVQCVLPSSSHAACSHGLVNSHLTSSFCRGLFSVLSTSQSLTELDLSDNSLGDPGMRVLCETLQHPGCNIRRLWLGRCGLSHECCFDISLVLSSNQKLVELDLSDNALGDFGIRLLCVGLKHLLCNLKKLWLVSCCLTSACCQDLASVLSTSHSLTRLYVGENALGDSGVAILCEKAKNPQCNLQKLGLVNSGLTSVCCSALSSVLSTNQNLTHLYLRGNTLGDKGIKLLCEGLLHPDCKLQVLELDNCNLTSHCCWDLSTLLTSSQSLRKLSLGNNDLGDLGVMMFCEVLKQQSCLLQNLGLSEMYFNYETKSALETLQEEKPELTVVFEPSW
Procedure, shortened: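 IFN-γ-differentiated THP-1 cells primed with LPS (final 50 ng/mL, 4 h, serum-free), then given compound for 1 h and ATP (final 5 mM) for 1 h at 37 °C. Secreted IL-1β in supernatant quantified by sandwich ELISA (mAb Mt175 capture, biotinylated mAb7P10 detection, streptavidin-HRP/TMB, 450 nm).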

[1] = tested on: DSS-induced acute enteritis mouse model; assay: DSS-induced acute enteritis mouse model (body weight, DAI score, colon length); format: in vivo, C57BL/6 mice
Procedure: (§1) Grouping and modeling: One day before the start of the experiment, all C57BL/6 mice were ear-labeled and recorded, and the animals with appropriate weight and normal status were selected for grouping (Sham group, vehicle group and embodiment 33 group). 10 animals per group; 3.5% dextran sulfate sodium salt (DSS, MP, molecular weight 36000-50000) prepared with sterile water is loaded into the drinking bottle in the vehicle and the 33 testing groups of rearing cages in the embodiment (100 mL per cage, replace the 3.5% DSS solution after 2-3 days with freshly prepared solution), and the animals in the vehicle and the 33 testing groups of the embodiment are free to drink for 10 consecutive days. The Sham group drank the normal water not containing DSS. Embodiment 33 compound is administered orally BID.
1) Body Weight Change (%)=BWi/BW0×100%, BWi is the average body weight of mice in the group on a given day, BW0 is the average body weight of mice before the start of treatment.
2) DAI score: The Disease Activity Index (DAI) scoring criteria are as follows:
3) Colon length: After the last dose, all animals were euthanized with CO2 and dissected. The entire colon (anus-cecum section) was isolated, moistened with ice-cold saline, smoothed and laid flat. On the dissecting board, without applying external force to stretch, use a digital vernier caliper to measure the length of the colon and record it, and take photos for retention.

[2] = Safety investigation, oral administration to SD rats for 14 consecutive days; details: 14 days
IL-1β = assay: Inflammatory factor IL-1β in serum and colon, DSS-induced acute enteritis mouse model; format: in vivo, C57BL/6 mice; details: 50 mpk, BID
Procedure: as §1
4) Detection of inflammatory factors: Blood was collected from all animals under their jaws, and serum was separated; serum and colon tissue IL-10 and IL-18 cytokines were detected according to the detection method in the Effect Embodiment 4.

[3] = 50 mpk P.O Bid, 3.5% DSS, day 11, n = 10

## Cc1nc(N[C@@H]2CCCC[C@H]2O)nnc1-c1ccc(C(F)(F)F)cc1O [Embodiment 33]
NLRP3
  IC50: 5.8 nM
[1]; 50mpk P.O Bid
  curative effect on animals with DSS-induced acute enteritis (IBD): significant curative effect
[1]; [3]
  Day 11 weight change (%): 88.09%
  Rate of body weight loss (%): 11.91%**
[1]; 50 mpk P.O Bid, Day 3
  DAI score: 0.00
[1]; 50 mpk P.O Bid, Day 5
  DAI score: 2.60 ± 0.45
[1]; 50 mpk P.O Bid, Day 7
  DAI score: 4.40 ± 0.6
[1]; 50 mpk P.O Bid, Day 9
  DAI score: 6.20 ± 0.68
[1]; 50 mpk P.O Bid, Day 11
  DAI score: 7.80 ± 0.63
[1]; 50 mpk P.O Bid, after the last dose, n = 10
  Colon length: 58.27 ± 1.48 mm
[2]
  dose without any toxic effects: ≤ 2000 mg/kg
IL-1β
  IL-1β in serum: 290.3 ± 30.65
  IL-1β in the colon: 6.018 ± 0.9675
